# Assay results taken from patent publication US8728515B2, “Adjuvants for use in vaccination” (Bangor University, priority 2008, dated 2014).
# Legend:
# C57BL/6 mice = assay: Inflammatory cell infiltration to the airways and lung tissue damage after intratracheal mycolic acid liposomes; type: in vivo; settings: liposomes intratracheally, 25 μg mycolic acids/100 μl/mouse, after 48 hours
# Experimental: (§1) Female C57BL/6J mice were purchased from Janvier and housed under specific pathogen free conditions in individually ventilated cages and fed ad libitum. Mice were 8-12 weeks old at the start of experiments.
# (§2) Briefly, the compounds were mixed with phosphatidylcholine (Sigma) in chloroform. The chloroform was evaporated and the lipids recovered in sterile saline. After ultrasound sonication and vortexing, samples of 25 μg mycolic acids/100 μl/mouse were administered intratracheally. A liposome control was prepared similarly, but without the addition of any mycolic acid compound.
# In order to be considered safe for human administration, compounds should preferably cause as little local inflammation or resulting tissue changes as possible.
# After 48 hours, mice were sacrificed and a broncho-alveolar lavage (BAL) was performed to measure the airway cell types and numbers by flowcytometry. Increased cell numbers and the appearance of granulocytes (mainly neutrophils) in the BAL-fluid are indicative for cell recruitment to the airways as result of an inflammatory reaction.
# Lavaged lungs were ectomised to allow for histo-pathological examination of the lung tissue. A haematoxylin and eosin staining of the paraffin lung sections was followed by a thorough examination by a skilled pathologist who scored the sections according to the following criteria in a double-blinded manner: […]
# airway CD11c+ cells = assay: Gene transcription profiling of airway CD11c+ cells (RT-qPCR on broncho-alveolar lavage cells after intratracheal liposomes); type: in vivo, mouse; settings: liposomes intratracheally, after 48 hours
# Experimental: as §1, §2
# Airway CD11c^+ cells include alveolar macrophages and dendritic cells, which are professional phagocytes and the most important cell types in the early recognition of non-self threats to the airways. Next to mounting an immediate appropriate innate immune response to these threats, CD11c^+ cells alert and instruct adaptive immune responses by means of 3 different signals: antigen-presentation, surface expression of T-cell co-stimulatory molecules and secretion of instruction cytokines. Whereas dendritic cells migrate to the draining lymph nodes in order to initiate a peripheral antigen-specific immune response, alveolar macrophages remain in the airways to further control local inflammation, but also to locally attract and orchestrate the acquired immune response by lymphocytes.
# In order for a locally applied vaccine to be effective, safe adjuvants that give the appropriate signal to CD11c^+ cells are needed to both increase the immunogenicity of the vaccine and direct the type of the acquired immune response. […] After 48 hours, the mice were sacrificed and broncho-alveolar lavage performed to measure the CD11c^+-cell gene transcription by RT-qPCR.
smiles,measurement,setting,value
"CCCCCCCCCCCCCCCCCCCCCCCC[C@@H](C(=O)O)[C@H](O)CCCCCCCCCCCCCCC[C@@H]1C[C@@H]1CCCCCCCCCCCCCCCCCCC(=O)[C@@H](C)CCCCCCCCCCCCCCCCCC (single isomer, unassigned) [Example 3]",melting point,,66 to 68 °C
CCCCCCCCCCCCCCCCCCCCCCCC[C@@H](C(=O)O)[C@H](O)CCCCCCCCCCCCCCCC[C@H]1C[C@@H]1[C@@H](C)CCCCCCCCCCCCCCCCCCC(=O)C(C)CCCCCCCCCCCCCCCCCC (some centres unmarked) [Compound 4],lung tissue changes (histo-pathological examination of lung sections),C57BL/6 mice,did not cause any significant lung tissue changes
CCCCCCCCCCCCCCCCCCCCCCCC[C@@H](C(=O)O)[C@H](O)CCCCCCCCCCCCCCCCC[C@@H]1CC1CCCCCCCCCCCCCCCC[C@@H](OC)[C@@H](C)CCCCCCCCCCCCCCCCCC (some centres unmarked) [Compound 6],"type of macrophage activation (iNOS = classical, Fizz1 = alternative marker)",airway CD11c+ cells; alveolar macrophages,mixed type of activation
same,KC (CXCL1) expression,airway CD11c+ cells,increased
same,MCP-1 (CCL2) expression,airway CD11c+ cells,enhance MCP-1 expression even to a greater extend than crude-MA
same,expression of IL-12p40,airway CD11c+ cells,strongly stimulate
same,induction of expression of IL-10,airway CD11c+ cells,maintained
same,expression of the inflammatory cytokines TNF-alpha and IL-6,airway CD11c+ cells; compared with crude-MA,less pronounced or absent
